Assay results taken from patent publication US20250163104A1, “MACROCYCLIC IMMUNOMODULATORS” (priority 2021, published 2025).
Where a SMILES comes first, the peptide text is derived from it. Bridges are numbered along the chain shown (N, C = ends). [ ]: non-standard residue; d: D form. Trp(βS-Me) = C[C@@H](c1c[nH]c2ccccc12)[C@H](N)C(=O)O; Ala(indol-4-yl) = N[C@@H](Cc1cccc2[nH]ccc12)C(=O)O; Phe(3,4-Cl2) = N[C@@H](Cc1ccc(Cl)c(Cl)c1)C(=O)O; Phe(3-CF3) = N[C@@H](Cc1cccc(C(F)(F)F)c1)C(=O)O; Ala(morpholin-4-yl) = N[C@@H](CN1CCOCC1)C(=O)O; Phe(4-COOH) = N[C@@H](Cc1ccc(C(=O)O)cc1)C(=O)O; Phe(4-CH2NH2) = NCc1ccc(C[C@H](N)C(=O)O)cc1; Bip = N[C@@H](Cc1ccc(-c2ccccc2)cc1)C(=O)O; Phe(4-Br) = N[C@@H](Cc1ccc(Br)cc1)C(=O)O; Phe(4-NH2) = Nc1ccc(C[C@H](N)C(=O)O)cc1; hPhe = N[C@@H](CCc1ccccc1)C(=O)O; 2Thi = N[C@@H](Cc1cccs1)C(=O)O; Cha = N[C@@H](CC1CCCCC1)C(=O)O; Orn = NCCC[C@H](N)C(=O)O; Dab = NCC[C@H](N)C(=O)O

target: T1, human PD-1 / PD-L1-Ig binding on Jurkat cell line over-expressing human PD-1 (Jurkat-PD-1) (Homo sapiens, UniProt Q15116); assay: Jurkat-PD-1 Cell Binding High-Content Screening Assay (CBA); assay type: cell-based; settings: Jurkat-PD-1 cells, PE-labeled PD-L1-Ig 20 nM final; read-out: Jurkat HPD1_PDL1 IC50
T1 construct: expressed in transfected cells; host or cells: Jurkat
T1 sequence (Q15116 25-288): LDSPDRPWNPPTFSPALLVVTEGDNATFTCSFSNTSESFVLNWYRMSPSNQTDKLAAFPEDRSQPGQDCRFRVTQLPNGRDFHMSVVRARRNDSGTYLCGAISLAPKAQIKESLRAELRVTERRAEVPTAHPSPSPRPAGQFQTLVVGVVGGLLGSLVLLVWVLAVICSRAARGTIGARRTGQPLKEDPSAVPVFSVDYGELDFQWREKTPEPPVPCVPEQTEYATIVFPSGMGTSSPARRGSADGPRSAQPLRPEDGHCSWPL
Method in brief: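 Cell-bound PE-labeled PD-L1-Ig (20 nM final, 1 h) measured by high-content imaging after fixation and Hoechst 33342 counterstain. Compound was applied first for 2 h at 37° C. to Jurkat cells over-expressing human PD-1 in DMEM with 10% FCS.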

Compound | IC50
CC(C)C[C@H]1NC(=O)[C@H](CCCN)NC(=O)[C@H](Cc2ccc(C(=O)O)cc2)NC(=O)[C@H](Cc2ccc(-c3ccccc3)cc2)NC(=O)[C@H](Cc2cccc3[nH]ccc23)NC(=O)[C@H](Cc2cccc(C(F)(F)F)c2)NC(=O)[C@H](CC(=O)O)NC(=O)[C@H](Cc2ccc(C(=O)O)cc2)NC(=O)[C@H](CN2CCOCC2)NC(=O)CSC[C@@H](C(=O)N[C@@H](CCN)C(N)=O)NC(=O)[C@H](CCC(=O)O)NC(=O)[C@H](C(C)C)NC(=O)[C@H](CC2CCCCC2)NC(=O)[C@H](CCN)NC1=O [Example 2742] ({CH2CO}-[Ala(morpholin-4-yl)][Phe(4-COOH)]D[Phe(3-CF3)][Ala(indol-4-yl)][Bip][Phe(4-COOH)][Orn][dL][Dab][Cha]VEC[Dab]-NH2; thioether N-14) | 4.6 nM
CC(C)C[C@H]1NC(=O)[C@H](CCCN)NC(=O)[C@H](Cc2ccc(C(=O)O)cc2)NC(=O)[C@H](Cc2ccc(-c3ccccc3)cc2)NC(=O)[C@H](CCc2ccccc2)NC(=O)[C@H](Cc2cccc(C(F)(F)F)c2)NC(=O)[C@H](CC(=O)O)NC(=O)[C@H](Cc2ccc(C(=O)O)cc2)NC(=O)[C@H](CN2CCOCC2)NC(=O)CSC[C@@H](C(=O)N[C@@H](CCN)C(N)=O)NC(=O)[C@H](CCC(=O)O)NC(=O)[C@H](C(C)C)NC(=O)[C@H](CC2CCCCC2)NC(=O)[C@H](CCN)NC1=O [Example 2744] ({CH2CO}-[Ala(morpholin-4-yl)][Phe(4-COOH)]D[Phe(3-CF3)][hPhe][Bip][Phe(4-COOH)][Orn][dL][Dab][Cha]VEC[Dab]-NH2; thioether N-14) | 3.4 nM
CC(C)C[C@H]1NC(=O)[C@H](CCCN)NC(=O)[C@H](Cc2ccc(C(=O)O)cc2)NC(=O)[C@H](Cc2ccc(-c3ccccc3)cc2)NC(=O)[C@H](Cc2ccc(-c3ccccc3)cc2)NC(=O)[C@H](Cc2cccc(C(F)(F)F)c2)NC(=O)[C@H](CC(=O)O)NC(=O)[C@H](Cc2ccc(C(=O)O)cc2)NC(=O)[C@H](CN2CCOCC2)NC(=O)CSC[C@@H](C(=O)N[C@@H](CCN)C(N)=O)NC(=O)[C@H](CCC(=O)O)NC(=O)[C@H](C(C)C)NC(=O)[C@H](CC2CCCCC2)NC(=O)[C@H](CCN)NC1=O [Example 2746] ({CH2CO}-[Ala(morpholin-4-yl)][Phe(4-COOH)]D[Phe(3-CF3)][Bip][Bip][Phe(4-COOH)][Orn][dL][Dab][Cha]VEC[Dab]-NH2; thioether N-14) | 3.7 nM
CC(C)C[C@H]1NC(=O)[C@H](CCCN)NC(=O)[C@H](Cc2ccc(C(=O)O)cc2)NC(=O)[C@H](Cc2ccc(-c3ccccc3)cc2)NC(=O)[C@H](Cc2ccc(CN)cc2)NC(=O)[C@H](Cc2cccc(C(F)(F)F)c2)NC(=O)[C@H](CC(=O)O)NC(=O)[C@H](Cc2ccc(C(=O)O)cc2)NC(=O)[C@H](CN2CCOCC2)NC(=O)CSC[C@@H](C(=O)N[C@@H](CCN)C(N)=O)NC(=O)[C@H](CCC(=O)O)NC(=O)[C@H](C(C)C)NC(=O)[C@H](CC2CCCCC2)NC(=O)[C@H](CCN)NC1=O [Example 2747] ({CH2CO}-[Ala(morpholin-4-yl)][Phe(4-COOH)]D[Phe(3-CF3)][Phe(4-CH2NH2)][Bip][Phe(4-COOH)][Orn][dL][Dab][Cha]VEC[Dab]-NH2; thioether N-14) | 2.8 nM
CC(C)C[C@H]1NC(=O)[C@H](CCCN)NC(=O)[C@H](Cc2ccc(C(=O)O)cc2)NC(=O)[C@H](Cc2ccc(-c3ccccc3)cc2)NC(=O)[C@H]([C@@H](C)c2c[nH]c3ccccc23)NC(=O)[C@H](Cc2cccc(C(F)(F)F)c2)NC(=O)[C@H](CC(=O)O)NC(=O)[C@H](Cc2ccc(C(=O)O)cc2)NC(=O)[C@H](CN2CCOCC2)NC(=O)CSC[C@@H](C(=O)N[C@@H](CCN)C(N)=O)NC(=O)[C@H](CCC(=O)O)NC(=O)[C@H](C(C)C)NC(=O)[C@H](CC2CCCCC2)NC(=O)[C@H](CCN)NC1=O [Example 2748] ({CH2CO}-[Ala(morpholin-4-yl)][Phe(4-COOH)]D[Phe(3-CF3)][Trp(βS-Me)][Bip][Phe(4-COOH)][Orn][dL][Dab][Cha]VEC[Dab]-NH2; thioether N-14) | 25.2 nM
CC(C)C[C@H]1NC(=O)[C@H](CCCN)NC(=O)[C@H](Cc2ccc(C(=O)O)cc2)NC(=O)[C@H](Cc2ccc(-c3ccccc3)cc2)NC(=O)[C@H](Cc2ccc(Br)cc2)NC(=O)[C@H](Cc2cccc(C(F)(F)F)c2)NC(=O)[C@H](CC(=O)O)NC(=O)[C@H](Cc2ccc(C(=O)O)cc2)NC(=O)[C@H](CN2CCOCC2)NC(=O)CSC[C@@H](C(=O)N[C@@H](CCN)C(N)=O)NC(=O)[C@H](CCC(=O)O)NC(=O)[C@H](C(C)C)NC(=O)[C@H](CC2CCCCC2)NC(=O)[C@H](CCN)NC1=O [Example 2750] ({CH2CO}-[Ala(morpholin-4-yl)][Phe(4-COOH)]D[Phe(3-CF3)][Phe(4-Br)][Bip][Phe(4-COOH)][Orn][dL][Dab][Cha]VEC[Dab]-NH2; thioether N-14) | 200 nM

The next molecules have a lower IC50 than those just listed; values first:

IC50 | Compound
2.3 nM | CC(C)C[C@H]1NC(=O)[C@H](CCCN)NC(=O)[C@H](Cc2ccc(C(=O)O)cc2)NC(=O)[C@H](Cc2ccc(-c3ccccc3)cc2)NC(=O)[C@H](Cc2ccc(Cl)c(Cl)c2)NC(=O)[C@H](Cc2cccc(C(F)(F)F)c2)NC(=O)[C@H](CC(=O)O)NC(=O)[C@H](Cc2ccc(C(=O)O)cc2)NC(=O)[C@H](CN2CCOCC2)NC(=O)CSC[C@@H](C(=O)N[C@@H](CCN)C(N)=O)NC(=O)[C@H](CCC(=O)O)NC(=O)[C@H](C(C)C)NC(=O)[C@H](CC2CCCCC2)NC(=O)[C@H](CCN)NC1=O [Example 2745] ({CH2CO}-[Ala(morpholin-4-yl)][Phe(4-COOH)]D[Phe(3-CF3)][Phe(3,4-Cl2)][Bip][Phe(4-COOH)][Orn][dL][Dab][Cha]VEC[Dab]-NH2; thioether N-14)
2.2 nM | CC(C)C[C@H]1NC(=O)[C@H](CCCN)NC(=O)[C@H](Cc2ccc(C(=O)O)cc2)NC(=O)[C@H](Cc2ccc(-c3ccccc3)cc2)NC(=O)[C@H](Cc2ccc(N)cc2)NC(=O)[C@H](Cc2cccc(C(F)(F)F)c2)NC(=O)[C@H](CC(=O)O)NC(=O)[C@H](Cc2ccc(C(=O)O)cc2)NC(=O)[C@H](CN2CCOCC2)NC(=O)CSC[C@@H](C(=O)N[C@@H](CCN)C(N)=O)NC(=O)[C@H](CCC(=O)O)NC(=O)[C@H](C(C)C)NC(=O)[C@H](CC2CCCCC2)NC(=O)[C@H](CCN)NC1=O [Example 2743] ({CH2CO}-[Ala(morpholin-4-yl)][Phe(4-COOH)]D[Phe(3-CF3)][Phe(4-NH2)][Bip][Phe(4-COOH)][Orn][dL][Dab][Cha]VEC[Dab]-NH2; thioether N-14)
1.9 nM | CC(C)C[C@H]1NC(=O)[C@H](CCCN)NC(=O)[C@H](Cc2ccc(C(=O)O)cc2)NC(=O)[C@H](Cc2ccc(-c3ccccc3)cc2)NC(=O)[C@H](Cc2cccs2)NC(=O)[C@H](Cc2cccc(C(F)(F)F)c2)NC(=O)[C@H](CC(=O)O)NC(=O)[C@H](Cc2ccc(C(=O)O)cc2)NC(=O)[C@H](CN2CCOCC2)NC(=O)CSC[C@@H](C(=O)N[C@@H](CCN)C(N)=O)NC(=O)[C@H](CCC(=O)O)NC(=O)[C@H](C(C)C)NC(=O)[C@H](CC2CCCCC2)NC(=O)[C@H](CCN)NC1=O [Example 2749] ({CH2CO}-[Ala(morpholin-4-yl)][Phe(4-COOH)]D[Phe(3-CF3)][2Thi][Bip][Phe(4-COOH)][Orn][dL][Dab][Cha]VEC[Dab]-NH2; thioether N-14)
